Reference: ChEMBL document CHEMBL5584314, “Identification of an m6A Natural Inhibitor, Lobeline, That Reverses Lenvatinib Resistance in Hepatocellular Tumors” (J Nat Prod, 2024)
Activity calls are given as the source filed them.

Tests used:
[1] = test system: Lenvatinib-resistant HCC/Len; assay: (§1) Antitumor activity against human Lenvatinib-resistant HCC/Len cells xenografted in BALB/c nude mouse model of PDX assessed as reduction in m6A expression in tumor tissue at 1.5 mg/kg, ip cotreated with lenvatinib 5 times per week for 3 weeks by immunohistochemistry analysis relative to control; assay type: functional, organism-based
[2] = test system: Lenvatinib-resistant Huh7/Len; assay: Antitumor activity against human Lenvatinib-resistant Huh7/Len cells xenografted in BALB/c nude mouse assessed as reduction in Ki-67 protein expression in tumor tissue at 1.5 mg/kg, ip cotreated with lenvatinib 5 times per week for 3 weeks by immunohistochemistry analysis relative to control; assay type: functional; parameters: scale not given: the % may be the effect or the level left
[3] = test system: Lenvatinib-resistant HCC/Len; assay: as §1, with “Ki-67 protein” for “m6A”; assay type: functional, organism-based
[4] = biological target: N6-adenosine-methyltransferase catalytic subunit (Homo sapiens) (UniProt Q86U44); assay: Inhibition of METTL3 in human Lenvatinib-resistant Huh7/Len cells assessed as effect on AKT1 mRNA expression level at 2 uM incubated for 72 hrs by RT-PCR analysis; assay type: cell-based
[5] = biological target: N6-adenosine-methyltransferase catalytic subunit (Homo sapiens) (UniProt Q86U44); assay: Inhibition of METTL3 in human Lenvatinib-resistant Huh7/Len cells assessed as effect on MMP3 mRNA expression level at 2 uM incubated for 72 hrs by RT-PCR analysis; assay type: cell-based
[6] = test system: Lenvatinib-resistant Hep3B/Len; assay: Antiproliferative activity against human Lenvatinib-resistant Hep3B/Len cells assessed as inhibition of cell viability up to 40 uM after 72 hrs by CCK-8 assay; assay type: functional, cell-based
[7] = biological target: N6-adenosine-methyltransferase catalytic subunit (Homo sapiens) (UniProt Q86U44); assay: Inhibition of METTL3 in human Lenvatinib-resistant Huh7/Len cells assessed as effect on LATS1 mRNA expression level at 2 uM incubated for 72 hrs by RT-PCR analysis; assay type: cell-based
[8] = biological target: N6-adenosine-methyltransferase catalytic subunit (Homo sapiens) (UniProt Q86U44); assay: Inhibition of METTL3 in human Lenvatinib-resistant Huh7/Len cells assessed as effect on IFIT2 mRNA expression level at 2 uM incubated for 72 hrs by RT-PCR analysis; assay type: cell-based
[9] = test system: Lenvatinib-resistant Hep3B/Len; assay: Antiproliferative activity against human Lenvatinib-resistant Hep3B/Len cells assessed as inhibition of clone formation ability at 5 uM preincubated for 72 hrs and measured after 7 to 10 days in presence of lenvatinib by crystal violet staining based assay; assay type: functional, cell-based; settings: time 10-13 day
[10] = test system: Lenvatinib-resistant Huh7/Len; assay: Inhibition of cell migration in human Lenvatinib-resistant Huh7/Len cells at 5 uM incubated for 48 hrs in presence of lenvatinib by transwell assay relative to control; assay type: functional
[11] = biological target: N6-adenosine-methyltransferase catalytic subunit (Homo sapiens) (UniProt Q86U44); assay: Inhibition of METTL3 in human Lenvatinib-resistant Huh7/Len cells assessed as effect on CRB3 mRNA expression level at 2 uM incubated for 72 hrs by RT-PCR analysis; assay type: cell-based
[12] = test system: Lenvatinib-resistant Huh7/Len; assay: Inhibition of cell migration in human Lenvatinib-resistant Huh7/Len cells at 5 uM incubated for 48 hrs by transwell assay; assay type: functional, cell-based
[13] = test system: Lenvatinib-resistant Huh7/Len; assay: Antiproliferative activity against human Lenvatinib-resistant Huh7/Len cells assessed as inhibition of cell viability at 5 uM uM after 72 hrs in presence of lenvatinib by CCK-8 assay; assay type: functional, cell-based
[14] = biological target: N6-adenosine-methyltransferase catalytic subunit (Homo sapiens) (UniProt Q86U44); assay: Inhibition of METTL3 in human Lenvatinib-resistant Huh7/Len cells assessed as effect on ADAMTS9 mRNA expression level at 2 uM incubated for 72 hrs by RT-PCR analysis; assay type: cell-based
[15] = biological target: N6-adenosine-methyltransferase catalytic subunit (Homo sapiens) (UniProt Q86U44); assay: Inhibition of METTL3 in human Lenvatinib-resistant Huh7/Len cells assessed as effect on GATA3 mRNA expression level at 2 uM incubated for 72 hrs by RT-PCR analysis; assay type: cell-based
[16] = biological target: N6-adenosine-methyltransferase catalytic subunit (Homo sapiens) (UniProt Q86U44); assay: Inhibition of METTL3 in human Lenvatinib-resistant Huh7/Len cells assessed as effect on EZH2 mRNA expression level at 2 uM incubated for 72 hrs by RT-PCR analysis; assay type: cell-based
[17] = test system: Lenvatinib-resistant Huh7/Len; assay: Antiproliferative activity against human Lenvatinib-resistant Huh7/Len cells assessed as inhibition of cell viability up to 40 uM after 72 hrs by CCK-8 assay; assay type: functional, cell-based
[18] = Toxicity in BALB/c nude mouse xenografted with human Lenvatinib-resistant Huh7/Len cells assessed as changes in organ index at 1.5 mg/kg, ip administered 5 times per week for 3 weeks; assay type: organism-based; settings: in vivo, 504 h
[19] = test system: Lenvatinib-resistant Huh7/Len; assay: Antiproliferative activity against human Lenvatinib-resistant Huh7/Len cells assessed as inhibition of clone formation ability at 5 uM preincubated for 72 hrs and measured after 7 to 10 days by crystal violet staining based assay; assay type: functional, cell-based; settings: time 10-13 day
[20] = Toxicity in BALB/c nude mouse PDX model xenografted with human Lenvatinib-resistant HCC/Len cells assessed as changes in body weight at 1.5 mg/kg, ip cotreated with lenvatinib 5 times per week for 3 weeks; assay type: organism-based; settings: in vivo, 504 h
[21] = biological target: N6-adenosine-methyltransferase catalytic subunit (Homo sapiens) (UniProt Q86U44); assay: Inhibition of METTL3 in human Huh-7 cells assessed as down regulation of m6A RNA level at 2 uM incubated for 72 hrs by colorimetric analysis; assay type: cell-based
[22] = Toxicity in BALB/c nude mouse PDX model xenografted with human Lenvatinib-resistant HCC/Len cells assessed as changes in organ index at 1.5 mg/kg, ip administered 5 times per week for 3 weeks; assay type: organism-based; settings: in vivo, 504 h
[23] = test system: Lenvatinib-resistant Hep3B/Len; assay: Antiproliferative activity against human Lenvatinib-resistant Hep3B/Len cells assessed as inhibition of clone formation ability at 5 uM preincubated for 72 hrs and measured after 7 to 10 days by crystal violet staining based assay; assay type: functional, cell-based; settings: time 10-13 day
[24] = biological target: N6-adenosine-methyltransferase catalytic subunit (Homo sapiens) (UniProt Q86U44); assay: Inhibition of METTL3 in human Lenvatinib-resistant Huh7/Len cells assessed as effect on NPCL1 mRNA expression level at 2 uM incubated for 72 hrs by RT-PCR analysis; assay type: cell-based
[25] = biological target: N6-adenosine-methyltransferase catalytic subunit (Homo sapiens) (UniProt Q86U44); assay: Inhibition of METTL3 in human Lenvatinib-resistant Huh7/Len cells assessed as effect on MYC mRNA expression level at 2 uM incubated for 72 hrs by RT-PCR analysis; assay type: cell-based
[26] = biological target: N6-adenosine-methyltransferase catalytic subunit (Homo sapiens) (UniProt Q86U44); assay: Inhibition of METTL3 in human Lenvatinib-resistant Huh7/Len cells assessed as effect on TET1 mRNA expression level at 2 uM incubated for 72 hrs by RT-PCR analysis; assay type: cell-based
[27] = biological target: N6-adenosine-methyltransferase catalytic subunit (Homo sapiens) (UniProt Q86U44); assay: Binding affinity to METTL3 in human Huh-7 cells assessed as thermal stability at 44 to 64 degreeC at 2 uM incubated for 30 mins followed by […] analysis; assay type: cell-based
[28] = biological target: N6-adenosine-methyltransferase catalytic subunit (Homo sapiens) (UniProt Q86U44); assay: Inhibition of METTL3 in human Huh-7 cells assessed as down regulation of m6A RNA level incubated for 72 hrs by Dot blot assay; assay type: cell-based; settings: dose 5-10 µM
[29] = test system: Lenvatinib-resistant Huh7/Len; assay: Anticancer activity against human Lenvatinib-resistant Huh7/Len cells assessed as increase in GGA motif at m6A site by MeRIP-m6A -sequencing analysis; assay type: functional, cell-based
[30] = Toxicity in BALB/c nude mouse PDX model xenografted with human Lenvatinib-resistant HCC/Len cells assessed as changes in body weight at 1.5 mg/kg, ip administered 5 times per week for 3 weeks; assay type: organism-based; settings: in vivo, 504 h
[31] = biological target: N6-adenosine-methyltransferase catalytic subunit (Homo sapiens) (UniProt Q86U44); assay: Inhibition of METTL3 in human Lenvatinib-resistant Huh7/Len cells assessed as effect on FGFR3 mRNA expression level at 2 uM incubated for 72 hrs by RT-PCR analysis; assay type: cell-based
[32] = test system: Lenvatinib-resistant HCC/Len; assay: Antitumor activity against human Lenvatinib-resistant HCC/Len cells xenografted in BALB/c nude mouse model of PDX assessed as reduction in METTL3 protein expression at 1.5 mg/kg, ip 5 times per week for 3 weeks by Western blot assay; assay type: functional, organism-based

Chain of N6-adenosine-methyltransferase catalytic subunit (Homo sapiens) (Q86U44 whole entry): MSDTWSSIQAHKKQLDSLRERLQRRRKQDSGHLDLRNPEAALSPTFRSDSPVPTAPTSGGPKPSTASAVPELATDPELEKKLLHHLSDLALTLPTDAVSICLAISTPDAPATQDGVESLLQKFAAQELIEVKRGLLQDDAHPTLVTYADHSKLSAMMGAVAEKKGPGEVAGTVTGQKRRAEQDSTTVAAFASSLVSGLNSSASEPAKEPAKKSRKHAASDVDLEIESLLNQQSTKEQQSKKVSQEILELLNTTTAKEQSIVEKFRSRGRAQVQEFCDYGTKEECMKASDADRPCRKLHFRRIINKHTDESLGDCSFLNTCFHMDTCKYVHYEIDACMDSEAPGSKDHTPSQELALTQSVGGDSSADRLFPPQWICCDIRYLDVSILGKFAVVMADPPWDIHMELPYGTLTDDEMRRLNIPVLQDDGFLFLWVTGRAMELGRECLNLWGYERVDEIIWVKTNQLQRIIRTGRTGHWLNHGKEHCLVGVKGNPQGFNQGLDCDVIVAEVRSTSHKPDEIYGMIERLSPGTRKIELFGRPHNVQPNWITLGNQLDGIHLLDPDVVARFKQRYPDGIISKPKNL

CN1[C@@H](CC(=O)c2ccccc2)CCC[C@H]1C[C@H](O)c1ccccc1 [LOBELINE]
inactive: inhibition [9] | inhibition [12] | inhibition [19] | inhibition [23] | Activity [32]
active: Activity [1] | Activity [3] | inhibition [4] | inhibition [5] | inhibition [6] | inhibition [7] | inhibition [8] | inhibition [11] | inhibition [13] | inhibition [14] | inhibition [15] | inhibition [16] | inhibition [17] | inhibition [24] | inhibition [25] | inhibition [26] | Activity [27] | inhibition [28] Dose-Dependent Effect | Activity [29] | inhibition [31]
30%: Activity [2]
42%: inhibition at 5 µM [10]
Non-Toxic: Activity [18] | Activity [20] | Activity [22] | Activity [30]
11%: inhibition [21]
